Key:
A375 xenografts = A375 xenografts in athymic nu/nu mice: tumor growth, response, survival, body weight; format: in vivo
Protocol: (§1) 2-Mercaptoethanol is a reducing agent that leads to reduction of disulphide bonds to produce thiols. […] The effect of eliminating GSH in vivo was tested by treating mice (Athymic nu/nu) bearing A375 xenografts with rodent diet (AIN-76A) containing PLX4720 ([…], 416 mg/kg of diet) alone and in combination with BSO (15 mM in drinking water). […] Tumor xenografts in mice treated with the AIN-76 diet mixed with PLX4720 were responsive initially, but approximately 80% of these tumors acquired resistance to BRAFi treatment alone within 140 days (i.e., 20% complete responses; FIG. 2). On the contrary, the combination of BSO with PLX4720 produced nearly 90% complete and durable tumor responses (FIG. 4). […] Tumor progression was defined as a 50% increase (approximately a two standard deviation increase) in tumor volume from study initiation.
Female athymic nu/nu mice (age six weeks) were purchased from Envigo (previously Harlan Laboratories) and housed in the Animal Care Facility at The University of Iowa (Iowa City, Iowa). All procedures were approved by The University of Iowa Institutional Animal Care and Use Committee. All mice were naïve to treatments at the time of xenograft. For each xenograft, 1-3×10^6 cells (451LuBR and A375) were implanted subcutaneously in a 1:1 suspension of Matrigel (Corning) and PBS (flank) using a 27-gauge needle. For all in vivo studies, the mice were randomly assigned to experimental groups post-implant. Animals developed tumors within 7-10 days post-implant. Initiation of treatments was standardized to the time that tumor volume ([(longest length)×(smallest length^2)]/2) reached 80-100 mm^3.
The dose and mode of delivery for PBA was determined by analyzing the pharmacokinetics C-14 labeled PBA in mice (FIG. 5). These drugs were administered alone and in combination depending on the experimental group. The mice were monitored for their state of health every day. Tumor volume and animal weights were measured twice per week. Mice were euthanized when the observed state of health reached the endpoint according to the approved IACUC protocol or when the tumor volume reached 1500 mm^3.
Statistics was conducted using the tumor sizes (mm^3) that were obtained periodically throughout the experiments, resulting in repeated measurements for each mouse. Linear mixed effects regression models were used to estimate and compare treatment group-specific tumor growth curves. Pairwise comparisons were performed to identify treatment group differences in the growth curves. The Kaplan-Meier method was used to estimate the survival curves, and group comparisons were made using the log rank test. Mice who developed ulcerations were censored at day of euthanasia. […]

[1] = system: GSH in A375 xenograft tumor samples; assay: GSH concentrations in tumor samples from treated mice; format: in vivo, mice (Athymic nu/nu); conditions: mice treated with BSO, 15 mM in drinking water
Protocol: as §1
Female athymic nu/nu mice (age six weeks) were purchased from Envigo (previously Harlan Laboratories) and housed in the Animal Care Facility at The University of Iowa (Iowa City, Iowa). All procedures were approved by The University of Iowa Institutional Animal Care and Use Committee. All mice were naïve to treatments at the time of xenograft. For each xenograft, 1-3×10^6 cells (451LuBR and A375) were implanted subcutaneously in a 1:1 suspension of Matrigel (Corning) and PBS (flank) using a 27-gauge needle. […]

With `CCCS(=O)(=O)Nc1ccc(F)c(C(=O)c2c[nH]c3ncc(Cl)cc23)c1F` [PLX4720] the “complete (and durable) tumor responses” value (A375 xenografts; A375 xenografts, PLX4720 416 mg/kg of diet, alone or with BSO 15 mM in drinking water) was 20%, the “time within which tumor xenografts acquire resistance” value (A375 xenografts; BRAFi treatment alone) was ≤ 140 days and the “tumors that acquired resistance to BRAFi treatment alone” value (A375 xenografts; within 140 days, PLX4720 416 mg/kg of AIN-76A diet) was “approximately 80%”.
In the case of `CCCCS(=N)(=O)CCC(N)C(=O)O` (centres unmarked) [BSO, buthionine sulfoximine], the “GSH concentrations in tumor samples vs controls” value [1] is reported as “significantly lower” and the “tumor growth rate versus untreated controls” value (A375 xenografts; BSO alone, 15 mM in drinking water, A375 xenografts) is reported as “No significant difference”.

— patent publication US11529335B2, “Compositions and methods for treating cancer” (UNIVERSITY OF IOWA RESEARCH FOUNDATION, priority 2020, dated 2022)
